{
  "source": "paper PMC11945486",
  "about": "“TAS1R2/TAS1R3 Single-Nucleotide Polymorphisms Affect Sweet Taste Receptor Activation by Sweeteners: The SWEET Project” (Nutrients, 2025)",
  "target": "T1, human TAS1R2-C9S (subunit alone) (Homo sapiens, UniProt Q8TE23)",
  "T1 construct": "expressed in transfected cells; host or cells: HEK293T-Gα16gust44",
  "T1 sequence (Q8TE23 20-839)": "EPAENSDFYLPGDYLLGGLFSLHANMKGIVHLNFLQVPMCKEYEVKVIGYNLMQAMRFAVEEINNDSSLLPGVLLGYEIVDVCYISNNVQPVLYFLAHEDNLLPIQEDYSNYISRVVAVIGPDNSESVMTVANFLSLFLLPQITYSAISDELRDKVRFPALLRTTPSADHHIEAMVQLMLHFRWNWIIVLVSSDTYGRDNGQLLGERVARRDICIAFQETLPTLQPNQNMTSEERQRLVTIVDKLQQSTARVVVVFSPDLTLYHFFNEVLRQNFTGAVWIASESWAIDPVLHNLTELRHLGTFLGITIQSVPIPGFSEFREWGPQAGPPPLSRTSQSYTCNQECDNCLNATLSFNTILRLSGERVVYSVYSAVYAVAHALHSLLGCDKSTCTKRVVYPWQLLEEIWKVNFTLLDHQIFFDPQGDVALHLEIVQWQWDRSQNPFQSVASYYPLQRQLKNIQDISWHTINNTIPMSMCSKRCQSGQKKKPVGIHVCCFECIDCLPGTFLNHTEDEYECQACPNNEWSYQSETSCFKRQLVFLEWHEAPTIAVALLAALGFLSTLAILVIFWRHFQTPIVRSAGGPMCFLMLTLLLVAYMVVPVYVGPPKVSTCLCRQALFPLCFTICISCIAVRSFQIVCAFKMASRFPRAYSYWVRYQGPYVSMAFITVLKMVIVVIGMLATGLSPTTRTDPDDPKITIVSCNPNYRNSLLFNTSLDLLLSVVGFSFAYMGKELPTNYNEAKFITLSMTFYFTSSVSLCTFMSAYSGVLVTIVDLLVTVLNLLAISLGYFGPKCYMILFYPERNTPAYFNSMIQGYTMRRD",
  "test": "Calcium mobilisation assay, TAS1R2-C9S subunit alone",
  "type": "cell-based",
  "from_the_text": "The coding sequences for TAS1R2 and TAS1R3 were commercially synthesised, and the human codon was optimised for expression in human cells. The coding sequences of human TAS1R2 and TAS1R3 were subcloned and inserted into the mammalian expression vectors pcDNA6/myc-HisA and pcDNA4/myc-HisA (Invitrogen; Thermo Fisher Scientific; Illkirch, France) between the EcoRI and NotI restriction sites, generating the plasmids pcDNA6-TAS1R2 and pcDNA4-TAS1R3, respectively. To increase protein expression in mammalian cells, an upstream start codon was used, which was a sequence called MAX, corresponding to the QBI SP163 element also described in pcDNA4-HisMax (Invitrogen; Thermo Fisher Scientific; Illkirch, France). To measure the expression level of the receptor by immunohistochemistry, we used the FLAG sequence ([…]) in the C-terminal position, which encodes the FLAG tag epitope. […]\nThe HEK293T cells were kindly provided by Jay P. Slack (Givaudan Flavors Corporation; Cincinnati, OH, USA). […] The fluorescence intensity was measured for 90 s (excitation 488 nm, emission 510 nm) in an automated fluorometric FlexStation®3 Multi-Mode microplate reader (Molecular Devices; San Jose, CA, USA). […] The Ca^2+ changes were expressed as fractional changes in fluorescent light intensity: ΔF/F = (F − F0)/F0, where F was the fluorescent light intensity at each point, and F0 was the value of emitted fluorescent light prior to stimulus application. To calculate dose–response relationships, the changes in fluorescence upon stimulus application were averaged, mock-subtracted and baseline-corrected. […] The half-maximal effective concentrations (EC50 values) and maximal signal amplitudes were calculated using SigmaPlot software (version 15.0) (Systat Software; San Jose, CA, USA).\nFor in vitro calcium mobilisation assay performed on hTAS1R2-SNPs, hTAS1R3-SNPs and mTAS1R3-I60T, 6 to 7 concentrations were tested for each sweet compound, plus buffer alone. All concentration–receptor combinations were measured in duplicate, and each experiment was repeated at least 4 times (8 wells/concentration). […]",
  "data": [
    {"smiles": "C=C(C)[C@@H]1CC=C(/C=N/O)CC1", "note": "[Perillartine, perillartine]", "values": [
      {"measurement": "EC50", "result": "190 ± 26.6", "unit": "µM"},
      {"measurement": "R1 = Variant EC50/WT EC50", "result": 2.1},
      {"measurement": "Max ΔF/F0", "setting": "maximal signal amplitude", "result": "0.44 ± 0.02"}
    ]}
  ]
}
